Measurements published in patent US12667574B2, “Paraxanthine-based bioactive composition and method of use thereof” (PX ING, LLC, priority 2021, dated 2026).

Tests used:
[1] = tested on: brain derived neuro factor, BDNF; experiment: BDNF level, neuroplasticity (second Example 4); type: in vivo, rats; conditions: oral 14 days
Procedure: (§1) Distilled water was provided ad libitum. […] Ltd (Bangalore, India).
(§2) The following HED were used in this study: 50 mg paraxanthine, (ENFINITY™, Ingenious Ingredients, L.P Lewisville, TX, USA; rat dose: 5.141 mg/kg bw/day); 25 mg L-Theanine (rat dose: 2.570 mg/kg bw), and 50 mg paraxanthine plus 25 mg L-Theanine. 0.5% Carboxy Methyl Cellulose sodium was used as vehicle and the test item formulations were prepared daily. […] The last dose on day 14 was given 1 hour prior to testing.

glutathione (GSH) [2] = experiment: Glutathione level (second Example 4); type: in vivo, rats; conditions: oral 14 days
Procedure: as §1, §2

acetylcholine (Ach) [3] = experiment: Acetylcholine concentration (second Example 4); type: in vivo, rats; conditions: oral 14 days
Procedure: as §1, §2

dopamine (dopa) [4] = experiment: Dopamine concentration (second Example 4); type: in vivo, rats; conditions: oral 14 days
Procedure: as §1, §2

male Swiss Albino mice = experiment: Treadmill endurance test (first Example 4, L-Theanine); type: in vivo; conditions: oral once daily 28 days, HED 50 mg paraxanthine, 25 mg L-Theanine
Procedure: as §1
The following HED were used in this study: 50 mg paraxanthine, (ENFINITY™ Ingenious Ingredients, L.P Lewisville, TX, USA; mouse dose: 10.275 mg/kg bw/day); 25 mg L-Theanine (mouse dose: 5.137 mg/kg bw), and 50 mg paraxanthine plus 25 mg L-Theanine. 0.5% Carboxy Methyl Cellulose sodium was used as vehicle and the test item formulations were prepared daily.
During the treatment period, exercise training was completed using a motorized treadmill (Exer 3/6, Columbus Instruments international, OH, USA) at a moderate intensity of 20 cm/sec as maximal running speed, an incline of ten degrees and a shock intensity of 0.2 mA, for ten minutes. The speed of the treadmill was manually adjusted by increasing the belt speed by 5 cm/sec every two minutes throughout the total duration of ten minutes. All animals were adapted to this procedure daily 60 minutes after dosing for five days in a week during the treatment period. 1.3. Treadmill Endurance Test
Muscle endurance was accomplished on a motorized treadmill at a low to moderate intensity of 5-50 cm/sec as maximal running speed, an incline of ten degrees and a shock intensity of 0.2 mA, with the belt speed being increased by 5 cm/sec every two minutes until it reaches 50 cm/sec. Animals were subjected to the treadmill test until exhaustion.

[5] = tested on: male Swiss Albino Wistar rats; experiment: Walter Morris Maze test (second Example 4, L-Theanine); type: in vivo; conditions: oral 14 days
Procedure: as §1, §2
The Walter Morris Maze test consisted of a circular pool in a room with geometric shapes on the wall serving as spatial cues. The pool, which is 70 cm in diameter and painted with black color, filled with 13 cm depth of 25±1° C. water. A platform (6 cm diameter) was placed into one quadrant of the pool and submerged 1 cm below the water surface. For the training, all rats were trained to locate the submerged platform in a constant location. The training day consisted of four trials. During training, a rat started at one of four starting points and allowed to swim until it located the platform or until 60 seconds had elapsed. The rat was allowed to remain on the platform for 15 seconds before being dried off and later was transferred to a holding cage. […] The animals were continuously trained 4 times at 4 starting points continued daily for 4 days, the main trial was conducted on the 15th & 16th day and the latency of escaping onto the platform was recorded.

[6] = tested on: male Swiss Albino Wistar rats; experiment: Walter Morris Maze test (Example 3); type: in vivo; conditions: oral 14 days
Procedure: Distilled water was provided ad libitum. […] Ltd (Bangalore, India). […] The last dose on day 14 was given 1 hour prior to testing. The Walter Morris Maze test consisted of a circular pool in a room with geometric shapes on the wall serving as spatial cues. The pool, which is 70 cm in diameter and painted with black color, filled with 13 cm depth of 25±1° C. water. A platform (6 cm diameter) was placed into one quadrant of the pool and submerged 1 cm below the water surface. For the training, all rats were trained to locate the submerged platform in constant location. The training day consisted of four trials. […] The rat was allowed to remain on the platform for 15 seconds before being dried off and later was transferred to a holding cage.

acetylcholine (Ach) [7] = experiment: Acetylcholine concentration (Example 3); type: in vivo, rats; conditions: oral 14 days
Procedure: as §1
(§3) 0.5% Carboxy Methyl Cellulose sodium was used as vehicle and the test item formulations were prepared daily. […] The last dose on day 14 was given 1 hour prior to testing.

glutathione (GSH) [8] = experiment: Glutathione level (Example 3); type: in vivo, rats; conditions: oral 14 days
Procedure: as §1, §3

[9] = tested on: brain derived neuro factor, BDNF; experiment: BDNF level, neuroplasticity (Example 3); type: in vivo, rats; conditions: oral 14 days
Procedure: as §1, §3

dopamine (dopa) [10] = experiment: Dopamine concentration (Example 3); type: in vivo, rats; conditions: oral 14 days
Procedure: as §1, §3

| SMILES | escape latency ([6]; old rats (16-month-old)) | escape latency ([6]; young rats (8-week-old)) | acetylcholine (Ach) concentration (acetylcholine (Ach) [7]; old rats) | acetylcholine (Ach) concentration (acetylcholine (Ach) [7]; young rats) | glutathione (GSH) level (glutathione (GSH) [8]; old rats) | glutathione (GSH) level (glutathione (GSH) [8]; young rats) | dopamine (dopa) concentration (dopamine (dopa) [10]; old rats) | dopamine (dopa) concentration (dopamine (dopa) [10]; young rats) | further results |
| --- | --- | --- | --- | --- | --- | --- | --- | --- | --- |
| CCNC(=O)CC[C@H](N)C(=O)O [L-Theanine, N5-ethyl-L-glutamine, reference compound] |  |  |  |  |  |  |  |  | BDNF ([1]; old rats): 789.1 ± 2.03 pg/mL; BDNF ([1]; young rats): 866 ± 8.66 pg/mL; glutathione (GSH) level (glutathione (GSH) [2]; old rats): 23.87 ± 0.45 µg/mL; glutathione (GSH) level (glutathione (GSH) [2]; young rats): 31.72 ± 0.53 µg/mL; acetylcholine (Ach) concentration (acetylcholine (Ach) [3]; old rats): 55.89±1.05 U/mL; acetylcholine (Ach) concentration (acetylcholine (Ach) [3]; young rats): 62.83±0.91 U/mL; dopamine (dopa) concentration (dopamine (dopa) [4]; old rats): 473.03 ± 6.05 ng/L; dopamine (dopa) concentration (dopamine (dopa) [4]; young rats): 528.18 ± 4.09 ng/L; distance travelled during treadmill exercise (male Swiss Albino mice): 295.17±6.11 m; escape latency ([5]; old rats (16-month-old)): 44.67 ± 2.16 s; escape latency ([5]; young rats (8-week-old)): 38.33 ± 2.07 s |
| C[N+](C)(C)CCOP(=O)([O-])OC[C@H](O)CO [alpha-GPC, L-Alpha glycerylphosphorylcholine, reference compound] | 39.83 ± 0.98 s | 34.83 ± 1.33 s | 56.89±1.76 U/mL | 65.89±1.64 U/mL | 24.72 ± 0.48 µg/mL | 31.72 ± 0.53 µg/mL | 506.35 ± 2.82 ng/L | 563.55 ± 7.98 ng/L | BDNF ([9]; old rats): 881.70 ± 10.41 µg/mL; BDNF ([9]; young rats): 881.70 ± 10.41 µg/mL |
| Cn1cnc2c1c(=O)[nH]c(=O)n2C [theobromine, reference compound] | 42.33 ± 1.63 s | 37.67 ± 2.07 s | 56.67±1.32 U/mL | 64.28±0.88 U/mL | 24.53 ± 0.54 µg/mL | 31.28 ± 0.78 µg/mL | 503.03 ± 9.29 ng/L | 552.73 ± 10.42 ng/L |  |
| Cn1c(=O)c2[nH]cnc2n(C)c1=O [theophylline, reference compound] | 43.83 ± 1.47 s | 38.00 ± 1.90 s | 55.33±1.05 U/mL | 63.89±1.64 U/mL | 24.23 ± 0.63 µg/mL | 29.78 ± 1.07 µg/mL | 495.82 ± 10.86 ng/L | 543.78 ± 6.11 ng/L |  |
